PubChem BioAssay AID1198 (NMMLSC, 2008)
Activity calls are given as the source filed them.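 Rule for the calls: active = EC50 under 10 microM for raising side scatter, a sign of cell differentiation; inactive = the rest, including fits that never converged.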

Tested on: LNCaP side scatter shift, flow cytometry, 4 days
Assay: activators of LNCaP prostate cell differentiation, dose response, flow cytometry, side scatter granularity (AID 1198)

| EC50 | SMILES |
| --- | --- |
| 8.74 µM | CN(C)c1ccc(CNC2CC(C)(C)NC(C)(C)C2)cc1 |
| 10.4 µM (inactive) | COc1ccc(-c2ccc(-c3noc(-c4ccccc4)n3)c(OC)n2)cc1 |
